Experiment [1] has as its target KRAS-G12V/RAF1 (Homo sapiens (Human), UniProt P01116, G12V). Briefly: KRAS/RAF1 binding inhibition assay (AlphaScreen). The method, boiled down:
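IC50 comes from variable-slope nonlinear fits of % inhibition (relative to DMSO) against inhibitor concentration. The AlphaScreen signal tracks the interaction of GppNHp-bound KRAS G12V with the RAF1 RBD after 60 min at 4° C with compound in 2% DMSO final.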
Background: Alpha assays give light when donor and acceptor beads are brought close together.

For experiment [2], the system named is SW620 cells. Briefly: 3D cell growth inhibition of SW620 cells carrying endogenous KRAS G12V mutation (CellTiter-Glo 3D, GI50). Format: cell-based. As to conditions: Homo sapiens, SW-620, 144 h; SW620 cells, 6 days; read-out: SW620 3D cell growth GI50. In a few lines: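 […], compound exposure lasted 6 days at 37° C, added the day after plating from DMSO stocks over a concentration range. Cells: SW620, KRAS G12V, 3D culture.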
A general note: Cellular ATP, detected with luciferase, serves as a proxy for viable cell number.

The target of experiment [3] is KRAS G12V (Homo sapiens (Human), UniProt P01116, G12V). Kind of experiment: KRAS G12V degradation in SW620 cells (Western blot, DC50). Format: cell-based. To be noted: 24 hours. In a few lines: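 KRAS levels were quantified by fluorescent Western blot as percent of the DMSO control after 24 h of compound exposure at 37° C in homozygous KRAS G12V SW620 cells. A four-parameter variable-slope fit of the dose-response gave the half-maximal degradation concentration.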
Chain of KRAS G12V (P01116-2 other isoform, or with tags, fused parts or gaps G12V): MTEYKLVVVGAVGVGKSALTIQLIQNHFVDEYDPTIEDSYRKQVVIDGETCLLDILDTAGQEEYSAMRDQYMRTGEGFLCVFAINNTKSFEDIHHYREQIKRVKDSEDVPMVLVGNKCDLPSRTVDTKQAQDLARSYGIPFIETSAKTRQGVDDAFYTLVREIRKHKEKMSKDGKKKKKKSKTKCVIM

Here are results for 13 compounds from patent US20250092039A1, “GLUTARIMIDE-CONTAINING PAN-KRAS-MUTANT DEGRADER COMPOUNDS AND USES THEREOF” (Tiger Biotherapeutics Inc., priority 2022, published 2025).

Chain of KRAS-G12V/RAF1 (P01116-2 other isoform, or with tags, fused parts or gaps G12V): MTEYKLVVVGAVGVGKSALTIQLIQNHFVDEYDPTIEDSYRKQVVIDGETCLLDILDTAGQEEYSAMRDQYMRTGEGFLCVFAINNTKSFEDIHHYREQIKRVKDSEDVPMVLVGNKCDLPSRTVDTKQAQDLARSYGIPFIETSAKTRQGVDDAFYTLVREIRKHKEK

As to `CCc1cccc2cc(O)cc(-c3ncc4c(N(C)C5CC5)nc(OCC5(CN6CCC(CN7CCN(c8ccc9c(c8)CN([C@H]8CCC(=O)NC8=O)C9=O)CC7)CC6)CC5)nc4c3F)c12` [Compound 15, (S)-3-(5-(4-((1-((1-(((4-(cyclopropyl(methyl)amino)-7-(8-ethyl-3-hydroxynaphthalen-1-yl)-8-fluoropyrido[4,3-d]pyrimidin-2-yl)oxy)methyl)cyclopropyl)methyl)piperidin-4-yl)methyl)piperazin-1-yl)-1-oxoisoindolin-2-yl)piperidine-2,6-dione], the half-maximal inhibitory concentration (IC50) in experiment [1] was greater than 200 nM. For the same compound, the GI50 in experiment [2] was greater than 100 nM. In experiment [3], this compound gave a DC50 greater than 100 nM.
In experiment [1], `CCc1cccc2cc(O)cc(-c3ncc4c(N5CCC[C@@](C)(O)C5)nc(OCC5(CN6CC7(CCN(c8ccc9c(c8)CN(C8CCC(=O)NC8=O)C9=O)CC7)C6)CC5)nc4c3F)c12` (stereo partly drawn) [Compound 16, 3-(5-(2-((1-(((7-(8-ethyl-3-hydroxynaphthalen-1-yl)-8-fluoro-4-((R)-3-hydroxy-3-methylpiperidin-1-yl)pyrido[4,3-d]pyrimidin-2-yl)oxy)methyl)cyclopropyl)methyl)-2,7-diazaspiro[3.5]nonan-7-yl)-1-oxoisoindolin-2-yl)piperidine-2,6-dione] yielded an IC50 of 20 to 200 nM. The concentration for 50% growth inhibition (GI50) in experiment [2] was greater than 100 nM. In experiment [3], this compound returned a half-maximal degradation concentration (DC50) greater than 100 nM.
Turning to `CCc1cccc2cc(O)cc(-c3ncc4c(N5CCC[C@@](C)(O)C5)nc(OCC5(CN6CC(CN7CC8(CCN(c9ccc%10c(c9)CN(C9CCC(=O)NC9=O)C%10=O)CC8)C7)C6)CC5)nc4c3F)c12` (stereo partly drawn) [Compound 17, 3-(5-(2-((1-((1-(((7-(8-ethyl-3-hydroxynaphthalen-1-yl)-8-fluoro-4-((R)-3-hydroxy-3-methylpiperidin-1-yl)pyrido[4,3-d]pyrimidin-2-yl)oxy)methyl)cyclopropyl)methyl)azetidin-3-yl)methyl)-2,7-diazaspiro[3.5]nonan-7-yl)-1-oxoisoindolin-2-yl)piperidine-2,6-dione], in experiment [1], the IC50 is 20 to 200 nM. In experiment [2], the GI50 was greater than 100 nM. Further, the 50% degradation concentration (DC50) in experiment [3] was greater than 100 nM.
`CCc1cccc2cc(O)cc(-c3ncc4c(N5CCC[C@@](C)(O)C5)nc(OCC5(CN6CC[C@@H](CN7CC8(CCN(c9ccc%10c(c9)CN(C9CCC(=O)NC9=O)C%10=O)CC8)C7)C6)CC5)nc4c3F)c12` (stereo partly drawn) [Compound 18, 3-(5-(2-(((R)-1-((1-(((7-(8-ethyl-3-hydroxynaphthalen-1-yl)-8-fluoro-4-((R)-3-hydroxy-3-methylpiperidin-1-yl)pyrido[4,3-d]pyrimidin-2-yl)oxy)methyl)cyclopropyl)methyl)pyrrolidin-3-yl)methyl)-2,7-diazaspiro[3.5]nonan-7-yl)-1-oxoisoindolin-2-yl)piperidine-2,6-dione] gave an IC50 in experiment [1] of less than 20 nM. Besides, the GI50 in experiment [2] fell in the range of 10 to 100 nM. Also, the half-maximal degradation concentration (DC50) in experiment [3] is greater than 100 nM.
For `CCc1cccc2cc(O)cc(-c3ncc4c(N5CCC[C@@](C)(O)C5)nc(OCC5(CN6CCC(CN7CC8(CCN(c9ccc%10c(c9)CN(C9CCC(=O)NC9=O)C%10=O)CC8)C7)CC6)CC5)nc4c3F)c12` (stereo partly drawn) [Compound 19, 3-(5-(2-((1-((1-(((7-(8-ethyl-3-hydroxynaphthalen-1-yl)-8-fluoro-4-((R)-3-hydroxy-3-methylpiperidin-1-yl)pyrido[4,3-d]pyrimidin-2-yl)oxy)methyl)cyclopropyl)methyl)piperidin-4-yl)methyl)-2,7-diazaspiro[3.5]nonan-7-yl)-1-oxoisoindolin-2-yl)piperidine-2,6-dione] the same measures were 20 to 200 nM, 10 to 100 nM and 1 to 10 nM.
For `CCc1c(F)ccc2cc(O)cc(-c3ncc4c(N5CCC[C@@](C)(O)C5)nc(OCC5(CN6CCC(C#N)(CN7CCN(c8ccc9c(c8)CN([C@H]8CCC(=O)NC8=O)C9=O)CC7)CC6)CC5)nc4c3F)c12` [Compound 20, 4-((4-(2-((S)-2,6-dioxopiperidin-3-yl)-1-oxoisoindolin-5-yl)piperazin-1-yl)methyl)-1-((1-(((7-(8-ethyl-7-fluoro-3-hydroxynaphthalen-1-yl)-8-fluoro-4-((R)-3-hydroxy-3-methylpiperidin-1-yl)pyrido[4,3-d]pyrimidin-2-yl)oxy)methyl)cyclopropyl)methyl)piperidine-4-carbonitrile] the same measures were greater than 200 nM, less than 10 nM and greater than 100 nM.
`CCc1cccc2cc(O)cc(-c3ncc4c(N5CCC[C@@](C)(O)C5)nc(OCC5(CN6CC[C@H](CN7CC8(CCN(c9ccc%10c(c9)CN(C9CCC(=O)NC9=O)C%10=O)CC8)C7)C6)CC5)nc4c3F)c12` (stereo partly drawn) [Compound 22, 3-(5-(2-(((S)-1-((1-(((7-(8-ethyl-3-hydroxynaphthalen-1-yl)-8-fluoro-4-((R)-3-hydroxy-3-methylpiperidin-1-yl)pyrido[4,3-d]pyrimidin-2-yl)oxy)methyl)cyclopropyl)methyl)pyrrolidin-3-yl)methyl)-2,7-diazaspiro[3.5]nonan-7-yl)-1-oxoisoindolin-2-yl)piperidine-2,6-dione] came in with an IC50 in experiment [1] of less than 20 nM. Besides, the GI50 in experiment [2] is 10 to 100 nM. Besides, the DC50 in experiment [3] was greater than 100 nM.
For `CCc1cccc2cc(O)cc(-c3ncc4c(N5CCC[C@@](C)(O)C5)nc(OCC5(CN6CCC(OC7CCN(c8ccc9c(c8)CN(C8CCC(=O)NC8=O)C9=O)CC7)CC6)CC5)nc4c3F)c12` (stereo partly drawn) [Compound 24, 3-(5-(4-((1-((1-(((7-(8-ethyl-3-hydroxynaphthalen-1-yl)-8-fluoro-4-((R)-3-hydroxy-3-methylpiperidin-1-yl)pyrido[4,3-d]pyrimidin-2-yl)oxy)methyl)cyclopropyl)methyl)piperidin-4-yl)oxy)piperidin-1-yl)-1-oxoisoindolin-2-yl)piperidine-2,6-dione] the same measures were 20 to 200 nM, less than 10 nM and less than 1 nM.
On to `Cc1nc(N)cc(-c2ncc3c(N4CCC[C@@](C)(O)C4)nc(OCC4(CN5CCC6(CC5)CC(CN5CCN(c7ccc8c(c7)CN([C@H]7CCC(=O)NC7=O)C8=O)CC5)C6)CC4)nc3c2F)c1C(F)(F)F` [Compound 26, (S)-3-(5-(4-((7-((1-(((7-(6-amino-2-methyl-3-(trifluoromethyl)pyridin-4-yl)-8-fluoro-4-((R)-3-hydroxy-3-methylpiperidin-1-yl)pyrido[4,3-d]pyrimidin-2-yl)oxy)methyl)cyclopropyl)methyl)-7-azaspiro[3.5]nonan-2-yl)methyl)piperazin-1-yl)-1-oxoisoindolin-2-yl)piperidine-2,6-dione], for which, in experiment [1], the IC50 was greater than 200 nM. The GI50 in experiment [2] is greater than 100 nM. The same compound had a DC50 in experiment [3] greater than 100 nM.
`CCc1cccc2cc(O)cc(-c3ncc4c(N(C)[C@@H]5C[C@H]5F)nc(OCC5(CN6CCC7(CC6)CC(CN6CCN(c8ccc9c(c8)CN([C@H]8CCC(=O)NC8=O)C9=O)CC6)C7)CC5)nc4c3F)c12` [Compound 27, (S)-3-(5-(4-((7-((1-(((7-(8-ethyl-3-hydroxynaphthalen-1-yl)-8-fluoro-4-(((1R,2R)-2-fluorocyclopropyl)(methyl)amino)pyrido[4,3-d]pyrimidin-2-yl)oxy)methyl)cyclopropyl)methyl)-7-azaspiro[3.5]nonan-2-yl)methyl)piperazin-1-yl)-1-oxoisoindolin-2-yl)piperidine-2,6-dione] had an IC50 in experiment [1] greater than 200 nM. Besides, the GI50 in experiment [2] was 10 to 100 nM. In experiment [3], this compound registered a DC50 of 1 to 10 nM.
For `CCc1cccc2cc(O)cc(-c3ncc4c(N5CCC[C@@](C)(O)C5)nc(OCC5(CN6CCC(N7CC8(CCN(c9ccc%10c(c9)CN([C@H]9CCC(=O)NC9=O)C%10=O)CC8)C7)CC6)CC5)nc4c3F)c12` [Compound 30, (S)-3-(5-(2-(1-((1-(((7-(8-ethyl-3-hydroxynaphthalen-1-yl)-8-fluoro-4-((R)-3-hydroxy-3-methylpiperidin-1-yl)pyrido[4,3-d]pyrimidin-2-yl)oxy)methyl)cyclopropyl)methyl)piperidin-4-yl)-2,7-diazaspiro[3.5]nonan-7-yl)-1-oxoisoindolin-2-yl)piperidine-2,6-dione] the same measures were less than 20 nM, less than 10 nM and 1 to 10 nM.
For `CCc1cccc2cc(O)cc(-c3ncc4c(N5CCC[C@@](C)(O)C5)nc(OCC5(CN6CCC7(CC6)CC(N6CCN(c8ccc9c(c8)C(=O)N(C8CCC(=O)NC8=O)C9=O)CC6)C7)CC5)nc4c3F)c12` (stereo partly drawn) [Compound 31, 2-(2,6-dioxopiperidin-3-yl)-5-(4-(7-((1-(((7-(8-ethyl-3-hydroxynaphthalen-1-yl)-8-fluoro-4-((R)-3-hydroxy-3-methylpiperidin-1-yl)pyrido[4,3-d]pyrimidin-2-yl)oxy)methyl)cyclopropyl)methyl)-7-azaspiro[3.5]nonan-2-yl)piperazin-1-yl)isoindoline-1,3-dione] the same measures were 20 to 200 nM, less than 10 nM and 1 to 10 nM.
In experiment [1], `CCc1cccc2cc(O)cc(-c3ncc4c(N5CCC[C@@](C)(O)C5)nc(OCC5(CN6CCC7(CC6)CC(CN6CCN(c8ccc9c(c8)C(=O)N(C8CCC(=O)NC8=O)C9=O)CC6)C7)CC5)nc4c3F)c12` (stereo partly drawn) [Compound 32, 2-(2,6-dioxopiperidin-3-yl)-5-(4-((7-((1-(((7-(8-ethyl-3-hydroxynaphthalen-1-yl)-8-fluoro-4-((R)-3-hydroxy-3-methylpiperidin-1-yl)pyrido[4,3-d]pyrimidin-2-yl)oxy)methyl)cyclopropyl)methyl)-7-azaspiro[3.5]nonan-2-yl)methyl)piperazin-1-yl)isoindoline-1,3-dione] came in with an IC50 of 20 to 200 nM. In addition, in experiment [2], the 50% growth inhibitory concentration (GI50) is less than 10 nM. Moreover, the 50% degradation concentration (DC50) in experiment [3] lay in the range of 1 to 10 nM.

The IC50 is the concentration at which inhibition is half-maximal. For orientation: GI50 means the concentration at which growth is held to half of that of the control. As a reminder, the DC50 is the midpoint of the concentration-degradation curve. A lower DC50 goes with a more potent degrader.
